Results from patent US20170355705A1 (GlaxoSmithKline Intellectual Property (No.2) Limited, priority 2014, published 2017).

Target: T1, SIRT1 (Homo sapiens, UniProt Q96EB6)
T1 sequence (Q96EB6 1-747): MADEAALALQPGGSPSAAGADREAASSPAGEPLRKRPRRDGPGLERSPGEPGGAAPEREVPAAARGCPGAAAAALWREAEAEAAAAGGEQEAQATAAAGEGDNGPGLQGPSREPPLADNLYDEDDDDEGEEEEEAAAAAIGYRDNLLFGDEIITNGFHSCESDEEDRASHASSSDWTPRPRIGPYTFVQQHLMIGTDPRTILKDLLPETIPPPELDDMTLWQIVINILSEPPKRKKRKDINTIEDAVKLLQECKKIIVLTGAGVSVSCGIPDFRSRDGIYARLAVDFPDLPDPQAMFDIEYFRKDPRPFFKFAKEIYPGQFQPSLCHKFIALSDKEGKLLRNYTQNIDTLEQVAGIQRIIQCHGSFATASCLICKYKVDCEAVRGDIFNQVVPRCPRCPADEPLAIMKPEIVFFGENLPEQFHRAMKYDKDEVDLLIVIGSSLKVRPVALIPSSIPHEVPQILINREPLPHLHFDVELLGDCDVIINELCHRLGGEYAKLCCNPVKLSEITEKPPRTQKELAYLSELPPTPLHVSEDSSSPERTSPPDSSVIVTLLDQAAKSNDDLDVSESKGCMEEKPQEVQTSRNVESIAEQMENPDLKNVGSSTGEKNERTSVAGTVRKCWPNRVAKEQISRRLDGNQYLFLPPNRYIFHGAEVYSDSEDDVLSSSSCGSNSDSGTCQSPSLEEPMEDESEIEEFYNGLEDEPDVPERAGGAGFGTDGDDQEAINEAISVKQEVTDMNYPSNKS
Assay: Trp mass spectrometry assay of SIRT1 activity (EC1.5, percent maximum activation)
Format: biochemical
Settings: Trp mass spectrometry assay; for TRP Activity (EC1.5): EC1.5 = concentration giving 150% activation of SIRT1
Outline: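 Sirtuin deacetylation was run with purified N-His SIRT1 and the 5TMR Trp peptide across a compound titration, stopped after 25 min by acidification, and analysed by MS for OAADPR. Endpoint lay within the linear range.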

[1] = 0.5 μM peptide substrate, 120 μM βNAD+, 10 nM SIRT1, 25 minutes at 25° C.
[2] = percent maximum activation of SIRT1

| Structure (SMILES) | TRP Activity (EC1.5, concentration of test compound that results in 150% activation of SIRT1) [1] | TRP MAX RESP (percent maximum fold activation) [1] | TRP MAX RESP (percent maximum fold activation) [2] | TRP Activity (EC1.5) |
| --- | --- | --- | --- | --- |
| Cl.O=C(NC1CC1)N1c2nc(-c3cccc(C(F)(F)F)c3)c(Cl)cc2N2CC[C@H]1C2 [Example 53, (4S)-8-chloro-N-cyclopropyl-7-(3-(trifluoromethyl)phenyl)-3,4-dihydro-1,4-methanopyrido[2,3-b][1,4]diazepine-5(2H)-carboxamide Hydrochloride] |  |  | A (Fold activation ≧150%) | A (EC1.5<1 μM) |
| O=C(Nc1ccnc(OC[C@H](O)CO)n1)N1c2nc(-c3cccc(C(F)(F)F)c3)c(Cl)cc2N2CC[C@H]1C2 [Example 50, (4S)-8-chloro-N-(2-((R)-2,3-dihydroxypropoxy)pyrimidin-4-yl)-7-(3-(trifluoromethyl)phenyl)-3,4-dihydro-1,4-methanopyrido[2,3-b][1,4]diazepine-5(2H)-carboxamide] |  |  | A (Fold activation ≧150%) | A (EC1.5<1 μM) |
| O=C(Nc1cc(OC[C@@H](O)CO)ncn1)N1c2nc(-c3cccc(C(F)(F)F)c3)c(Cl)cc2N2CC[C@H]1C2 [Example 75, (4S)-8-chloro-N-(6-((S)-2,3-dihydroxypropoxy)pyrimidin-4-yl)-7-(3-(trifluoromethyl)phenyl)-3,4-dihydro-1,4-methanopyrido[2,3-b][1,4]diazepine-5(2H)-carboxamide] |  |  | A (Fold activation ≧150%) | B (EC1.5 1-25 μM) |
| O=C(Nc1cc(OC[C@H](O)CO)ccn1)N1c2nc(-c3cccc(C(F)(F)F)c3)c(Cl)cc2N2CC[C@H]1C2 [Example 31, (4S)-8-chloro-N-(4-((R)-2,3-dihydroxypropoxy)pyridin-2-yl)-7-(3-(trifluoromethyl)phenyl)-3,4-dihydro-1,4-methanopyrido[2,3-b][1,4]diazepine-5(2H)-carboxamide] |  |  | A (Fold activation ≧150%) | B (EC1.5 1-25 μM) |
| O=C(Nc1ccc(OC[C@H](O)CO)cn1)N1c2nc(-c3cccc(C(F)(F)F)c3)c(Cl)cc2N2CC[C@H]1C2 [Example 76, (4S)-8-chloro-N-(5-((R)-2,3-dihydroxypropoxy)pyridin-2-yl)-7-(3-(trifluoromethyl)phenyl)-3,4-dihydro-1,4-methanopyrido[2,3-b][1,4]diazepine-5(2H)-carboxamide] |  |  | A (Fold activation ≧150%) | A (EC1.5<1 μM) |
| Cc1cc(-c2nc3c(cc2Cl)N2CC[C@@H](C2)N3C(=O)Nc2ccnc(O[C@H]3CCOC3)n2)ccn1 [Example 20, (4S)-8-chloro-7-(2-methylpyridin-4-yl)-N-(2-(((S)-tetrahydrofuran-3-yl)oxy)pyrimidin-4-yl)-3,4-dihydro-1,4-methanopyrido[2,3-b][1,4]diazepine-5(2H)-carboxamide] |  |  | A (Fold activation ≧150%) | C (EC1.5>25 μM) |
| O=C(Nc1ccnc(OCCCO)n1)N1c2nc(-c3cccc(C(F)(F)F)c3)c(Cl)cc2N2CC[C@H]1C2 [Example 42, (4S)-8-chloro-N-(2-(3-hydroxypropoxy)pyrimidin-4-yl)-7-(3-(trifluoromethyl)phenyl)-3,4-dihydro-1,4-methanopyrido[2,3-b][1,4]diazepine-5(2H)-carboxamide] |  |  | A (Fold activation ≧150%) | A (EC1.5<1 μM) |
| CC(C)(CO)COc1cncc(NC(=O)N2c3nc(-c4cccc(C(F)(F)F)c4)c(Cl)cc3N3CC[C@H]2C3)n1 [Example 43, (4S)-8-chloro-N-(6-(3-hydroxy-2,2-dimethylpropoxy)pyrazin-2-yl)-7-(3-(trifluoromethyl)phenyl)-3,4-dihydro-1,4-methanopyrido[2,3-b][1,4]diazepine-5(2H)-carboxamide] |  |  | A (Fold activation ≧150%) | B (EC1.5 1-25 μM) |
| COc1ncc(-c2nc3c(cc2Cl)N2CC[C@@H](C2)N3C(=O)Nc2ccnc(OC[C@@H](O)CO)c2)cc1C(F)(F)F [Example 99, (4S)-8-chloro-N-(2-((S)-2,3-dihydroxypropoxy)pyridin-4-yl)-7-(6-methoxy-5-(trifluoromethyl)pyridin-3-yl)-3,4-dihydro-1,4-methanopyrido[2,3-b][1,4]diazepine-5(2H)-carboxamide] |  |  | A (Fold activation ≧150%) | B (EC1.5 1-25 μM) |
| Cc1ccc(-c2cc(C)c3c(n2)N(C(=O)Nc2cccnc2)[C@H]2CCN3C2)cn1 [Example 13, (4S)-9-methyl-7-(6-methylpyridin-3-yl)-N-(pyridin-3-yl)-3,4-dihydro-1,4-methanopyrido[2,3-b][1,4]diazepine-5(2H)-carboxamide] |  |  | A (Fold activation ≧150%) | B (EC1.5 1-25 μM) |
| Cl.O=C(Nc1cccc(OC[C@@H](O)CO)n1)N1c2nc(-c3cccc(C(F)(F)F)c3)c(Cl)cc2N2CC[C@H]1C2 [Example 68, (4S)-8-chloro-N-(6-((S)-2,3-dihydroxypropoxy)pyridin-2-yl)-7-(3-(trifluoromethyl)phenyl)-3,4-dihydro-1,4-methanopyrido[2,3-b][1,4]diazepine-5(2H)-carboxamide Hydrochloride] |  |  | A (Fold activation ≧150%) | A (EC1.5<1 μM) |

Second part, the molecule after the results:

| TRP Activity (EC1.5, concentration of test compound that results in 150% activation of SIRT1) [1] | TRP MAX RESP (percent maximum fold activation) [1] | TRP MAX RESP (percent maximum fold activation) [2] | TRP Activity (EC1.5) | Structure (SMILES) |
| --- | --- | --- | --- | --- |
| C (EC1.5>25 μM) | B (Fold Activation <150%) |  |  | Cc1ccc(-c2ccc3c(n2)N(C(=O)NCC(C)(C)C)[C@H]2CCN3C2)cn1 [Example 237, (4S)-7-(6-methylpyridin-3-yl)-N-neopentyl-3,4-dihydro-1,4-methanopyrido[2,3-b][1,4]diazepine-5(2H)-carboxamide] |
|  |  | A (Fold activation ≧150%) |  | Cc1cc(-c2ccc3c(n2)N(C(=O)Nc2cnc4c(c2)OCCO4)[C@H]2CCN3C2)ccn1 [Example 148, (4S)-N-(2,3-dihydro-[1,4]dioxino[2,3-b]pyridin-7-yl)-7-(2-methylpyridin-4-yl)-3,4-dihydro-1,4-methanopyrido[2,3-b][1,4]diazepine-5(2H)-carboxamide] |
| B (EC1.5 1-25 μM) | A (Fold activation ≧150%) |  |  | O=C(Nc1ccnc(OCC(O)CO)c1)N1c2nc(-c3cnn(CC(F)(F)F)c3)c(Cl)cc2N2CC[C@H]1C2 (stereo in doubt) [Example 371, (4S)-8-chloro-N-(2-((R)-2,3-dihydroxypropoxy)pyridin-4-yl)-7-(1-(2,2,2-trifluoroethyl)-1H-pyrazol-4-yl)-3,4-dihydro-1,4-methanopyrido[2,3-b][1,4]diazepine-5(2H)-carboxamide] |
|  |  | A (Fold activation ≧150%) | B (EC1.5 1-25 μM) | O=C(Nc1ccnc(OC[C@@H](O)CO)c1)N1c2nc(-c3ccnc(C(F)(F)F)c3)c(Cl)cc2N2CC[C@H]1C2 [Example 108, (4S)-8-chloro-N-(2-((S)-2,3-dihydroxypropoxy)pyridin-4-yl)-7-(2-(trifluoromethyl)pyridin-4-yl)-3,4-dihydro-1,4-methanopyrido[2,3-b][1,4]diazepine-5(2H)-carboxamide] |
|  |  | A (Fold activation ≧150%) | A (EC1.5<1 μM) | O=C(Nc1ccnc(OCC(O)CO)c1)N1c2nc(-c3cccc(C(F)(F)F)c3)ccc2N2CC[C@H]1C2 (stereo in doubt) [Example 170, (4S)-N-(2-((S)-2,3-dihydroxypropoxy)pyridin-4-yl)-7-(3-(trifluoromethyl)phenyl)-3,4-dihydro-1,4-methanopyrido[2,3-b][1,4]diazepine-5(2H)-carboxamide] |
| A (EC1.5<1 μM) | A (Fold activation ≧150%) |  |  | Cc1cc(-c2ccc3c(n2)N(C(=O)Nc2cnccn2)[C@H]2CCN3C2)cc(C(F)(F)F)n1 [Example 223, (4S)-7-(2-methyl-6-(trifluoromethyl)pyridin-4-yl)-N-(pyrazin-2-yl)-3,4-dihydro-1,4-methanopyrido[2,3-b][1,4]diazepine-5(2H)-carboxamide] |
|  |  | A (Fold activation ≧150%) | B (EC1.5 1-25 μM) | Cc1cc(-c2ccc3c(n2)N(C(=O)Nc2cnc(C4CC4)cn2)[C@H]2CCN3C2)ccn1 [Example 164, (4S)-N-(5-cyclopropylpyrazin-2-yl)-7-(2-methylpyridin-4-yl)-3,4-dihydro-1,4-methanopyrido[2,3-b][1,4]diazepine-5(2H)-carboxamide] |
